Assay results published in ChEMBL document CHEMBL2434848, “Synthesis and biological evaluation of novel alkyl amide functionalized trifluoromethyl substituted pyrazolo[3,4-b]pyridine derivatives as potential anticancer agents” (Bioorg Med Chem Lett, 2013).

Legend:
Assay type in all cases: functional, cell-based; call rule not given here
[1] = tested on: A549; assay: Cytotoxicity against human A549 cells after 24 hrs by MTT assay
[2] = tested on: DU-145; assay: Cytotoxicity against human DU145 cells after 24 hrs by MTT assay
[3] = tested on: HeLa; assay: Cytotoxicity against human HeLa cells after 24 hrs by MTT assay
[4] = tested on: MCF7; assay: Cytotoxicity against human MCF7 cells after 24 hrs by MTT assay
[5] = Homo sapiens, A549, 24 h, read-out: IC50
[6] = Homo sapiens, DU-145, 24 h, read-out: IC50
[7] = Homo sapiens, HeLa, 24 h, read-out: IC50
[8] = Homo sapiens, MCF7, 24 h, read-out: IC50

## Nc1nn(CC(=O)NC2CC2)c2nc(-c3ccccc3)cc(C(F)(F)F)c12
[1]; a549
  IC50: Not Active
[2]; du-145
  IC50: Not Active
[3]; hela
  IC50: Not Active
[4]; mcf7
  IC50: Not Active

## NNC(=O)Cn1nc(N)c2c(C(F)(F)F)cc(-c3ccccc3)nc21
[1]; [5]
  IC50: 53.6 µM
[2]; [6]
  IC50: 52.4 µM
[3]; [7]
  IC50: 48.4 µM
[4]; [8]
  IC50: 35.4 µM

## CN1CCN(C(=O)Cn2nc(N)c3c(C(F)(F)F)cc(-c4ccccc4)nc32)CC1
[1]; [5]
  IC50: 18.4 µM
[2]; [6]
  IC50: 18.1 µM
[3]; [7]
  IC50: 17.7 µM
[4]; [8]
  IC50: 16.6 µM

## Nc1nn(CC(=O)NC2CCCCC2)c2nc(-c3ccccc3)cc(C(F)(F)F)c12
[1]; [5]
  IC50: 2.3 µM
[2]; [6]
  IC50: 3.1 µM
[3]; [7]
  IC50: 3.9 µM
[4]; [8]
  IC50: 5.2 µM

## Nc1nn(CC(=O)NCC(=O)O)c2nc(-c3ccccc3)cc(C(F)(F)F)c12
[1]; [5]
  IC50: 19.9 µM
[2]; [6]
  IC50: 18.8 µM
[3]; [7]
  IC50: 19.1 µM
[4]; [8]
  IC50: 21.2 µM

## Nc1nn(CC(=O)N2CCN(CCO)CC2)c2nc(-c3ccccc3)cc(C(F)(F)F)c12
[1]; [5]
  IC50: 14.9 µM
[2]; [6]
  IC50: 3.2 µM
[3]; [7]
  IC50: 2.9 µM
[4]; [8]
  IC50: 15.6 µM

## Nc1nn(CC(=O)N2CCCC2)c2nc(-c3ccccc3)cc(C(F)(F)F)c12
[1]; [5]
  IC50: 18.7 µM
[2]; [6]
  IC50: 12.2 µM
[3]; [7]
  IC50: 16.1 µM
[4]; [8]
  IC50: 15.9 µM

## CCNC(=O)Cn1nc(N)c2c(C(F)(F)F)cc(-c3ccccc3)nc21
[1]; [5]
  IC50: 18.8 µM
[2]; [6]
  IC50: 17.9 µM
[3]; [7]
  IC50: 20.2 µM
[4]; [8]
  IC50: 21.3 µM

## Nc1nn(CC(=O)N2CCN(c3ccccc3)CC2)c2nc(-c3ccccc3)cc(C(F)(F)F)c12
[1]; [5]
  IC50: 20.7 µM
[2]; [6]
  IC50: 18.9 µM
[3]; [7]
  IC50: 19.8 µM
[4]; [8]
  IC50: 19.7 µM

## CNC(=O)Cn1nc(N)c2c(C(F)(F)F)cc(-c3ccccc3)nc21
[1]; [5]
  IC50: 15.3 µM
[2]; [6]
  IC50: 14.4 µM
[3]; [7]
  IC50: 12.2 µM
[4]; [8]
  IC50: 11.8 µM

## Nc1nn(CC(=O)NCc2ccccc2)c2nc(-c3ccccc3)cc(C(F)(F)F)c12
[1]; [5]
  IC50: 17.3 µM
[2]; [6]
  IC50: 15.6 µM
[3]; [7]
  IC50: 17.1 µM
[4]; [8]
  IC50: 16.3 µM

## Nc1nn(CC(=O)NC(Cc2ccccc2)C(=O)O)c2nc(-c3ccccc3)cc(C(F)(F)F)c12 (stereo not given)
[1]; [5]
  IC50: 30.1 µM
[2]; [6]
  IC50: 32.3 µM
[3]; [7]
  IC50: 31.3 µM
[4]; [8]
  IC50: 42.1 µM

## Nc1nn(CC(=O)NCCO)c2nc(-c3ccccc3)cc(C(F)(F)F)c12
[1]; [5]
  IC50: 128 µM
[2]; [6]
  IC50: 96.3 µM
[3]; [7]
  IC50: 69.5 µM
[4]; [8]
  IC50: 78.2 µM

## CC(NC(=O)Cn1nc(N)c2c(C(F)(F)F)cc(-c3ccccc3)nc21)C(=O)O (stereo not given)
[1]; [5]
  IC50: 25.6 µM
[2]; [6]
  IC50: 22.4 µM
[3]; [7]
  IC50: 20.1 µM
[4]; [8]
  IC50: 19.9 µM

## Nc1nn(CC(=O)N2CCOCC2)c2nc(-c3ccccc3)cc(C(F)(F)F)c12
[1]; [5]
  IC50: 5.4 µM
[2]; [6]
  IC50: 5.1 µM
[3]; [7]
  IC50: 6.6 µM
[4]; [8]
  IC50: 5.9 µM

## O=c1[nH]cc(F)c(=O)[nH]1 [FLUOROURACIL]
[1]; [5]
  IC50: 1.1 µM
[2]; [6]
  IC50: 1.3 µM
[3]; [7]
  IC50: 1.1 µM
[4]; [8]
  IC50: 1.2 µM

## Nc1nn(CC(=O)N2CCCCC2)c2nc(-c3ccccc3)cc(C(F)(F)F)c12
[1]; [5]
  IC50: 1.2 µM
[2]; [6]
  IC50: 3.2 µM
[3]; [7]
  IC50: 2.9 µM
[4]; [8]
  IC50: 4.1 µM

## Nc1nn(CC(=O)NCc2ccco2)c2nc(-c3ccccc3)cc(C(F)(F)F)c12
[1]; [5]
  IC50: 7.7 µM
[2]; [6]
  IC50: 5.6 µM
[3]; [7]
  IC50: 7.1 µM
[4]; [8]
  IC50: 5 µM

## CCCNC(=O)Cn1nc(N)c2c(C(F)(F)F)cc(-c3ccccc3)nc21
[1]; [5]
  IC50: 16.5 µM
[2]; [6]
  IC50: 15.5 µM
[3]; [7]
  IC50: 15.9 µM
[4]; [8]
  IC50: 14.9 µM

## NCCNC(=O)Cn1nc(N)c2c(C(F)(F)F)cc(-c3ccccc3)nc21
[1]; [5]
  IC50: 50.2 µM
[2]; [6]
  IC50: 38.9 µM
[3]; [7]
  IC50: 44.5 µM
[4]; [8]
  IC50: 42.9 µM
